Structures are written as SMILES.

One assay concerns the target T1, Adenosine receptor A1 (Homo sapiens, UniProt P30542).
T1 sequence (P30542 whole entry): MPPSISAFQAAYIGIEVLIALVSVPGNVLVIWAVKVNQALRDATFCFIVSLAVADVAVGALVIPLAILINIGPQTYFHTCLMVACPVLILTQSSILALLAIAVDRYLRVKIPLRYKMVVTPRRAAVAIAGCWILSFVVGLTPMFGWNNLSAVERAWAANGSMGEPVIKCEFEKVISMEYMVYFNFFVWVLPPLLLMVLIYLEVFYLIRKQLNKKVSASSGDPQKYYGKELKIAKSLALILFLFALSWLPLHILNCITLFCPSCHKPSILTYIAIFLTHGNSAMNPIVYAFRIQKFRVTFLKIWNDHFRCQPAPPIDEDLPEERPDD
The assay can be described thus: Displacement of [3H]-DPCPX from human adenosine A1 receptor expressed in CHO cells after 120 mins by liquid scintillation counting. The format is cell-based. (Loss of bound radioactivity is the signal in a displacement assay; it reports binding, not function.)

The next assay has as its target Adenosine receptor A2a (Homo sapiens, UniProt P29274). The assay can be described thus: Displacement of [3H]-ZM 241385 from human adenosine A2A receptor expressed in CHO cells after 60 mins by liquid scintillation counting. The format is cell-based.
For another assay, the target named is T2, Adenosine receptor A3 (Homo sapiens, UniProt P0DMS8).
T2 sequence (P0DMS8 whole entry): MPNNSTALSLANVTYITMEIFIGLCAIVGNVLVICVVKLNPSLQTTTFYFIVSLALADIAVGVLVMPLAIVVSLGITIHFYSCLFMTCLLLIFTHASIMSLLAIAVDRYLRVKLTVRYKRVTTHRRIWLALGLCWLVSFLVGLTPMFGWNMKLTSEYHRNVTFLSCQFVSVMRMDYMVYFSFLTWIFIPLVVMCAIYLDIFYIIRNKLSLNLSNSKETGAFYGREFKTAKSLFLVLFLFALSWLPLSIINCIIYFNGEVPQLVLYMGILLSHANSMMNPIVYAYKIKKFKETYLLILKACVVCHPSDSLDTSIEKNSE
The assay is described as follows: Displacement of [3H]-MRE-3008-F20 from human adenosine A3 receptor expressed in CHO cells after 120 mins by liquid scintillation counting. The assay is classed as cell-based.

The target of the next assay is T3, Adenosine receptor A2b (Homo sapiens, UniProt P29275).
T3 sequence (P29275 whole entry): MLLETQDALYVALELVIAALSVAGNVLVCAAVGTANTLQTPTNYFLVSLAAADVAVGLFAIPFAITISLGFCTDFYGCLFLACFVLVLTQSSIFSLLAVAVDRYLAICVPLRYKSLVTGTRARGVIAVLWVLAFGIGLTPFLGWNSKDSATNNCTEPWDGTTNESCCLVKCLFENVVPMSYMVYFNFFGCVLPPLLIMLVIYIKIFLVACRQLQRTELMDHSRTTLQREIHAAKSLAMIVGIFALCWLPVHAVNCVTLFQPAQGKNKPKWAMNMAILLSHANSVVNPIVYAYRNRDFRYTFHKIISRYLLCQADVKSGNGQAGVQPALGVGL
The format is functional, cell-based, CHO.

Sequence of Adenosine receptor A2a (P29274 whole entry): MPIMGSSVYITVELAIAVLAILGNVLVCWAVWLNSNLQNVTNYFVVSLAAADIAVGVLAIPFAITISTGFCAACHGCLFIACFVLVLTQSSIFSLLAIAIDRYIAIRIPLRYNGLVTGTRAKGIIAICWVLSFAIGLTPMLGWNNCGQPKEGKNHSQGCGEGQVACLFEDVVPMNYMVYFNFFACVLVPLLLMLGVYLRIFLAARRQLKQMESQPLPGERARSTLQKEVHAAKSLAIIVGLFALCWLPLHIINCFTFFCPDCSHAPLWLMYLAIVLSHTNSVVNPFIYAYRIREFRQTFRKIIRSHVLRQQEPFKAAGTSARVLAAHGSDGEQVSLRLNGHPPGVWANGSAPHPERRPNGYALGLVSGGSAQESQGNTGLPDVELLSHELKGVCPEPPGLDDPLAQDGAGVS
Description for Adenosine receptor A2b: Antagonist activity at human adenosine A2B receptor expressed in CHO cells assessed as inhibition of NECA-induced cAMP production by competition protein binding assay

Usually Ki stands for a dissociation constant, usually derived from enzyme kinetics or from competition with a known ligand. Higher therefore signals a looser hold on the target. A word on the IC50: it is the point on the concentration scale where inhibition reaches its midpoint. A higher IC50 goes with weaker potency. For `COc1ccc(NC(=O)Nc2nc3cn(C)nc3c3nc(-c4ccco4)nn23)cc1`, the Ki is 923 nM at Adenosine receptor A1, 222 nM on Adenosine receptor A2a and 110 nM on Adenosine receptor A3. Moreover, on Adenosine receptor A2b, the IC50 was 580 nM.
`Cn1cc2nc(N)n3nc(-c4ccco4)nc3c2c1`: the Ki on Adenosine receptor A1 was 100 nM; on Adenosine receptor A2a, 20 nM; at Adenosine receptor A3, 50 nM. Further, at Adenosine receptor A2b, the IC50 worked out at 42 nM.
As to `CCCn1ncc2nc(NC(=O)Nc3ccc(OC)cc3)n3nc(-c4ccco4)nc3c21`, the Ki was found to be 61 nM on Adenosine receptor A1, 20 nM at Adenosine receptor A2a and 161 nM on Adenosine receptor A3. On Adenosine receptor A2b, this compound came in with an IC50 of 32 nM.
Consider `Cn1ncc2nc(NC3CCCCC3)n3nc(-c4ccco4)nc3c21`, for which the Ki was 12 nM at Adenosine receptor A1, 119 nM on Adenosine receptor A2a and 507 nM on Adenosine receptor A3. For the same compound, the midpoint of inhibition against Adenosine receptor A2b, the IC50, lay at 915 nM.
Turning to `CCCn1cc2nc(N)n3nc(-c4ccco4)nc3c2n1`, the Ki on Adenosine receptor A1 was determined as 22 nM; at Adenosine receptor A2a it was 17 nM; at Adenosine receptor A3, 432 nM. The same compound displayed an IC50 at Adenosine receptor A2b of 45 nM.
Turning to `Nc1nc2cn(CCc3ccccc3)nc2c2nc(-c3ccco3)nn12`, the Ki amounted to 4.9 nM on Adenosine receptor A1, 9.2 nM on Adenosine receptor A2a and 315 nM at Adenosine receptor A3. Besides, at Adenosine receptor A2b, the IC50 was found to be 27 nM.
For `Nc1nc2cn(CCCc3ccccc3)nc2c2nc(-c3ccco3)nn12`, the Ki was found to be 7.1 nM on Adenosine receptor A1, 11 nM at Adenosine receptor A2a and 526 nM at Adenosine receptor A3. For the same compound, on Adenosine receptor A2b, 32 nM corresponded to half-maximal inhibition (IC50).
On the same counts, the results for `Cn1ncc2nc(N)n3nc(-c4ccco4)nc3c21` are 10 nM, 3.6 nM, 749 nM and 31 nM.
`Nc1nc2cnn(CCc3ccccc3)c2c2nc(-c3ccco3)nn12`: the figures for the Ki on Adenosine receptor A1, at Adenosine receptor A2a and on Adenosine receptor A3 were 33 nM, 42 nM and 603 nM, respectively. Also, 319 nM corresponded to half-maximal inhibition against Adenosine receptor A2b (IC50).
At Adenosine receptor A3, `Nc1nc2c(cnn2CCc2ccccc2)c2nc(-c3ccco3)nn12` [SCH-58261] showed an inhibition constant Ki of over 10000 nM.
With `CCCn1cc2nc(N)n3nc(-c4ccco4)nc3c2c1`, the Ki on Adenosine receptor A1 was determined as 35 nM; on Adenosine receptor A2a, 30 nM; at Adenosine receptor A3, 55 nM. Besides, the IC50 against Adenosine receptor A2b was determined as 90 nM.
On to `COc1ccc(NC(=O)Nc2nc3cn(CCc4ccccc4)cc3c3nc(-c4ccco4)nn23)cc1`, for which the Ki is 178 nM on Adenosine receptor A1, 148 nM on Adenosine receptor A2a and 12 nM at Adenosine receptor A3. At Adenosine receptor A2b, this compound gave a half-maximal inhibitory concentration (IC50) of 740 nM.
For the compound `Nc1nc2cnn(CCCc3ccccc3)c2c2nc(-c3ccco3)nn12`, the Ki at Adenosine receptor A1 was 85 nM; on Adenosine receptor A2a it was 122 nM; on Adenosine receptor A3, 802 nM. At Adenosine receptor A2b, this compound came in with an IC50 of 595 nM.
Consider `COc1ccc(NC(=O)Nc2nc3cn(CCc4ccccc4)nc3c3nc(-c4ccco4)nn23)cc1`, for which the Ki worked out at 753 nM at Adenosine receptor A1, 672 nM at Adenosine receptor A2a and 314 nM at Adenosine receptor A3. The IC50 at Adenosine receptor A2b worked out at 548 nM.
`COc1ccc(NC(=O)Nc2nc3cnn(C)c3c3nc(-c4ccco4)nn23)cc1`: the Ki is 129 nM on Adenosine receptor A1, 68 nM on Adenosine receptor A2a and 61 nM at Adenosine receptor A3. The IC50 against Adenosine receptor A2b was 122 nM.
Turning to `COc1ccc(NC(=O)Nc2nc3cnn(CCc4ccccc4)c3c3nc(-c4ccco4)nn23)cc1`, the Ki at Adenosine receptor A1 was found to be 524 nM; at Adenosine receptor A2a, 626 nM; at Adenosine receptor A3, 208 nM. The compound further had a half-inhibitory concentration (IC50) at Adenosine receptor A2b of 772 nM.
`Nc1nc2cn(CCCc3ccccc3)cc2c2nc(-c3ccco3)nn12`: the values for the inhibitory constant (Ki) at Adenosine receptor A1, at Adenosine receptor A2a and at Adenosine receptor A3 were 18 nM, 50 nM and 241 nM, respectively. For the same compound, inhibition against Adenosine receptor A2b was half-maximal at 251 nM (IC50).
In the case of `Nc1nc2cn(CCc3ccccc3)cc2c2nc(-c3ccco3)nn12`, the values for the Ki at Adenosine receptor A1, at Adenosine receptor A2a and on Adenosine receptor A3 were 4.3 nM, 3.9 nM and 124 nM, respectively. The same compound gave a half-inhibitory concentration (IC50) at Adenosine receptor A2b of 46 nM.
With `Cn1cc2nc(N)n3nc(-c4ccco4)nc3c2n1`, the Ki on Adenosine receptor A1 came to 30 nM; on Adenosine receptor A2a, 8.1 nM; at Adenosine receptor A3, 125 nM. The midpoint of inhibition against Adenosine receptor A2b, the IC50, lay at 33 nM.

Values taken from ChEMBL document CHEMBL1932966, “Pyrrolo- and pyrazolo-[3,4-e][1,2,4]triazolo[1,5-c]pyrimidines as adenosine receptor antagonists” (Bioorg Med Chem, 2012).
